For 10 molecules, Activity results are on record in ChEMBL document CHEMBL3046469, “Fungicidal Activities of 2-(Substituted Phenoxymethyl)phenyl-2-methoxyiminoacaetamide Derivatives” (1998).

In the first experiment the test system is Pyricularia oryzae. Briefly: Fungicidal activity against Magnaporthe oryzae assessed as rice blast disease control at 125 ppm foliar application for 24 hr before inoculation at 27 +/- 2 degC measured after 5 days by preventive manner. The class given is functional.
As to `CNC(=O)/C(=N/OC)c1ccccc1COc1cccc(F)c1F`, the Activity is on record as less than 90%.

With `CNC(=O)/C(=N/OC)c1ccccc1COc1ccc(/C=C\c2ccccc2)cc1`, the Activity was less than 90%.

Take `CNC(=O)/C(=N/OC)c1ccccc1COc1ccc(C(=O)c2ccccc2)cc1`: the Activity is on record as 90%.

For the molecule `CNC(=O)/C(=N/OC)c1ccccc1COc1ccc(F)cc1`, the Activity is on record as 90%.

Take `CNC(=O)/C(=N/OC)c1ccccc1COc1cccc(Br)c1`: the Activity worked out at 90%.

For the molecule `CNC(=O)/C(=N/OC)c1ccccc1COc1cc(C)c(C)cc1Cl`, the Activity is 90%.

Consider `CNC(=O)/C(=N/OC)c1ccccc1COc1cccc([N+](=O)[O-])c1`, for which the Activity turned out to be 90%.

As to `CNC(=O)/C(=N/OC)c1ccccc1COc1cc(Cl)cc(Cl)c1`, the Activity was 90%.

`C#CCOc1cccc(OCc2ccccc2/C(=N\OC)C(=O)NC)c1`: the Activity is given as 90%.

As for `CNC(=O)/C(=N/OC)c1ccccc1COc1c(C)cc(C)cc1C`, the Activity is given as 90%.

Another experiment has as its system Podosphaera fuliginea. Briefly: Fungicidal activity against Podosphaera fuliginea assessed as cucumber powdery mildew control at 7.8 ppm foliar application 24 hr before inoculation at 23 +/- 2 degC by preventive manner. The class given is functional.
Turning to `CNC(=O)/C(=N/OC)c1ccccc1COc1cccc(F)c1F`, the Activity worked out at 90%.

For `CNC(=O)/C(=N/OC)c1ccccc1COc1ccc(F)cc1`, the Activity is 90%.

For `CNC(=O)/C(=N/OC)c1ccccc1COc1cccc(Br)c1`, the Activity turned out to be 90%.

Regarding `CNC(=O)/C(=N/OC)c1ccccc1COc1cc(C)c(C)cc1Cl`, the Activity worked out at 90%.

Take `CNC(=O)/C(=N/OC)c1ccccc1COc1cc(Cl)cc(Cl)c1`: the Activity is recorded as 90%.

The test system of the next experiment is Botrytis cinerea. Description: Fungicidal activity against Botryotinia fuckeliana assessed as cucumber gray mold disease control at 7.8 ppm foliar application […] at 22 +/- 2 degC by preventive manner. Format: functional.
With `CNC(=O)/C(=N/OC)c1ccccc1COc1cccc(F)c1F`, the Activity is listed as 90%.

In the case of `CNC(=O)/C(=N/OC)c1ccccc1COc1ccc(C(=O)c2ccccc2)cc1`, the Activity amounted to 90%.

For `CNC(=O)/C(=N/OC)c1ccccc1COc1ccc(F)cc1`, the Activity was 90%.

Take `CNC(=O)/C(=N/OC)c1ccccc1COc1cccc(Br)c1`: the Activity stood at 90%.

As for `CNC(=O)/C(=N/OC)c1ccccc1COc1cc(C)c(C)cc1Cl`, the Activity is given as 90%.

As for `CNC(=O)/C(=N/OC)c1ccccc1COc1cc(Cl)cc(Cl)c1`, the Activity stood at 90%.

In a further experiment the test system is Podosphaera fuliginea. Description: Fungicidal activity against Podosphaera fuliginea assessed as cucumber powdery mildew control at 125 ppm foliar application 24 hr before inoculation at 23 +/- 2 degC by preventive manner. The class given is functional.
As for `CNC(=O)/C(=N/OC)c1ccccc1COc1ccc(/C=C\c2ccccc2)cc1`, the Activity is reported as less than 90%.

As for `CNC(=O)/C(=N/OC)c1ccccc1COc1ccc(C(=O)c2ccccc2)cc1`, the Activity was less than 90%.

Take `CNC(=O)/C(=N/OC)c1ccccc1COc1cccc([N+](=O)[O-])c1`: the Activity is less than 90%.

As for `C#CCOc1cccc(OCc2ccccc2/C(=N\OC)C(=O)NC)c1`, the Activity is 90%.

As for `CNC(=O)/C(=N/OC)c1ccccc1COc1c(C)cc(C)cc1C`, the Activity came to 90%.

Another experiment concerns Blumeria graminis f. sp. tritici. Description: Fungicidal activity against Blumeria graminis f. sp. tritici assessed as wheat powdery mildew disease control at 125 ppm foliar application for 48 hr before inoculation by preventive manner. Format: functional.
As for `CNC(=O)/C(=N/OC)c1ccccc1COc1ccc(/C=C\c2ccccc2)cc1`, the Activity amounted to 90%.

In the case of `CNC(=O)/C(=N/OC)c1ccccc1COc1ccc(C(=O)c2ccccc2)cc1`, the Activity is listed as 90%.

As for `CNC(=O)/C(=N/OC)c1ccccc1COc1cc(C)c(C)cc1Cl`, the Activity came to 90%.

As to `CNC(=O)/C(=N/OC)c1ccccc1COc1cccc([N+](=O)[O-])c1`, the Activity turned out to be 90%.

As to `C#CCOc1cccc(OCc2ccccc2/C(=N\OC)C(=O)NC)c1`, the Activity worked out at 90%.

Take `CNC(=O)/C(=N/OC)c1ccccc1COc1c(C)cc(C)cc1C`: the Activity worked out at 90%.

For a further experiment the test system is unchanged. Description: Fungicidal activity against Blumeria graminis f. sp. tritici assessed as wheat powdery mildew disease control at 7.8 ppm foliar application 48 24 hr before inoculation by preventive manner. The class given is functional.
For the molecule `CNC(=O)/C(=N/OC)c1ccccc1COc1cc(Cl)cc(Cl)c1`, the Activity is listed as 90%.

For another experiment the test system is unchanged. Description: Fungicidal activity against Blumeria graminis f. sp. tritici assessed as wheat powdery mildew disease control at 2 ppm foliar application for 48 hr before inoculation by preventive manner. The class given is functional.
As to `CNC(=O)/C(=N/OC)c1ccccc1COc1cccc(F)c1F`, the Activity was 90%.

For `CNC(=O)/C(=N/OC)c1ccccc1COc1ccc(F)cc1`, the Activity stood at 90%.

The subject of a further experiment is Thanatephorus cucumeris. Briefly: Fungicidal activity against Thanatephorus cucumeris assessed as rice sheath blight disease control at 125 ppm foliar application for 24 hr before inoculation at 26 +/- 2 degC measured after 5 days by preventive manner. The class given is functional.
Take `CNC(=O)/C(=N/OC)c1ccccc1COc1cccc(F)c1F`: the Activity was less than 90%.

Regarding `CNC(=O)/C(=N/OC)c1ccccc1COc1ccc(/C=C\c2ccccc2)cc1`, the Activity is listed as less than 90%.

Regarding `CNC(=O)/C(=N/OC)c1ccccc1COc1ccc(C(=O)c2ccccc2)cc1`, the Activity is listed as less than 90%.

On to `CNC(=O)/C(=N/OC)c1ccccc1COc1ccc(F)cc1`, for which the Activity turned out to be 90%.

Regarding `CNC(=O)/C(=N/OC)c1ccccc1COc1cccc(Br)c1`, the Activity is less than 90%.

For `CNC(=O)/C(=N/OC)c1ccccc1COc1cc(C)c(C)cc1Cl`, the Activity was less than 90%.

Regarding `CNC(=O)/C(=N/OC)c1ccccc1COc1cccc([N+](=O)[O-])c1`, the Activity was less than 90%.

As to `CNC(=O)/C(=N/OC)c1ccccc1COc1cc(Cl)cc(Cl)c1`, the Activity was less than 90%.

Regarding `C#CCOc1cccc(OCc2ccccc2/C(=N\OC)C(=O)NC)c1`, the Activity is less than 90%.

Turning to `CNC(=O)/C(=N/OC)c1ccccc1COc1c(C)cc(C)cc1C`, the Activity is less than 90%.

In a further experiment the test system is Pseudoperonospora cubensis. Briefly: Fungicidal activity against Pseudoperonospora cubensis assessed as cucumber downy mildew disease control at 125 ppm foliar application 24 hr before inoculation onto the abaxial(untreated) surface of leaf by preventive manner. The class given is functional.
Turning to `CNC(=O)/C(=N/OC)c1ccccc1COc1cccc(F)c1F`, the Activity was less than 90%.

Consider `CNC(=O)/C(=N/OC)c1ccccc1COc1ccc(/C=C\c2ccccc2)cc1`, for which the Activity is less than 90%.

In the case of `CNC(=O)/C(=N/OC)c1ccccc1COc1ccc(C(=O)c2ccccc2)cc1`, the Activity is given as less than 90%.

With `CNC(=O)/C(=N/OC)c1ccccc1COc1cc(C)c(C)cc1Cl`, the Activity was less than 90%.

For `CNC(=O)/C(=N/OC)c1ccccc1COc1cccc([N+](=O)[O-])c1`, the Activity is less than 90%.

As for `C#CCOc1cccc(OCc2ccccc2/C(=N\OC)C(=O)NC)c1`, the Activity is given as 90%.

Regarding `CNC(=O)/C(=N/OC)c1ccccc1COc1c(C)cc(C)cc1C`, the Activity is reported as less than 90%.

For another experiment, the system named is Pseudoperonospora cubensis. Briefly: Fungicidal activity against Pseudoperonospora cubensis assessed as cucumber downy mildew disease control at 31.3 ppm foliar application 24 hr before inoculation onto the abaxial(untreated) surface of leaf by preventive manner. Format: functional.
In the case of `CNC(=O)/C(=N/OC)c1ccccc1COc1ccc(F)cc1`, the Activity was found to be 90%.

Regarding `CNC(=O)/C(=N/OC)c1ccccc1COc1cc(Cl)cc(Cl)c1`, the Activity was determined as 90%.

The test system of a further experiment is Pseudoperonospora cubensis. Briefly: Fungicidal activity against Pseudoperonospora cubensis assessed as cucumber downy mildew disease control at 7.8 ppm foliar application 24 hr before inoculation onto the abaxial(untreated) surface of leaf by preventive manner. The class given is functional.
Regarding `CNC(=O)/C(=N/OC)c1ccccc1COc1cccc(Br)c1`, the Activity is recorded as 90%.

In another experiment the test system is Pseudoperonospora cubensis. Description: Fungicidal activity against Pseudoperonospora cubensis assessed as cucumber downy mildew disease control at 7.8 ppm foliar application 24 hr before inoculation onto the adaxial(treated) surface of leaf by preventive manner. Format: functional.
For the molecule `CNC(=O)/C(=N/OC)c1ccccc1COc1cccc(F)c1F`, the Activity came to 90%.

As to `CNC(=O)/C(=N/OC)c1ccccc1COc1ccc(F)cc1`, the Activity came out at 90%.

In the case of `CNC(=O)/C(=N/OC)c1ccccc1COc1cccc([N+](=O)[O-])c1`, the Activity is on record as 90%.

Regarding `CNC(=O)/C(=N/OC)c1ccccc1COc1c(C)cc(C)cc1C`, the Activity was found to be 90%.

Another experiment deals with Pseudoperonospora cubensis. Description: Fungicidal activity against Pseudoperonospora cubensis assessed as cucumber downy mildew disease control at 2 ppm foliar application 24 hr before inoculation onto the adaxial(treated) surface of leaf by preventive manner. Format: functional.
Turning to `CNC(=O)/C(=N/OC)c1ccccc1COc1cccc(Br)c1`, the Activity is 90%.

In the case of `CNC(=O)/C(=N/OC)c1ccccc1COc1cc(C)c(C)cc1Cl`, the Activity stood at 90%.

As for `CNC(=O)/C(=N/OC)c1ccccc1COc1cc(Cl)cc(Cl)c1`, the Activity is given as 90%.

Take `C#CCOc1cccc(OCc2ccccc2/C(=N\OC)C(=O)NC)c1`: the Activity came out at 90%.

Another experiment concerns Botrytis cinerea. Briefly: Fungicidal activity against Botryotinia fuckeliana assessed as cucumber gray mold disease control at 125 ppm foliar application […] at 22 +/- 2 degC by preventive manner. The class given is functional.
As for `CNC(=O)/C(=N/OC)c1ccccc1COc1ccc(/C=C\c2ccccc2)cc1`, the Activity was less than 90%.

The next experiment relates to Botrytis cinerea. Description: Fungicidal activity against Botryotinia fuckeliana assessed as cucumber gray mold disease control at 31.3 ppm foliar application […] at 22 +/- 2 degC by preventive manner. Format: functional.
For `C#CCOc1cccc(OCc2ccccc2/C(=N\OC)C(=O)NC)c1`, the Activity worked out at 90%.

In the case of `CNC(=O)/C(=N/OC)c1ccccc1COc1c(C)cc(C)cc1C`, the Activity stood at 90%.
